Experimental findings from patent US20230117324A1, “OXAZINE MONOACYLGLYCEROL LIPASE (MAGL) INHIBITORS” (Hoffmann-La Roche Inc., priority 2018, published 2023) are described below.

By IC50 is commonly meant the point on the concentration scale where inhibition reaches its midpoint.

The assay has as its target T1, MAGL (recombinant wild-type) (Homo sapiens, UniProt Q99685).
T1 sequence (Q99685 1-303): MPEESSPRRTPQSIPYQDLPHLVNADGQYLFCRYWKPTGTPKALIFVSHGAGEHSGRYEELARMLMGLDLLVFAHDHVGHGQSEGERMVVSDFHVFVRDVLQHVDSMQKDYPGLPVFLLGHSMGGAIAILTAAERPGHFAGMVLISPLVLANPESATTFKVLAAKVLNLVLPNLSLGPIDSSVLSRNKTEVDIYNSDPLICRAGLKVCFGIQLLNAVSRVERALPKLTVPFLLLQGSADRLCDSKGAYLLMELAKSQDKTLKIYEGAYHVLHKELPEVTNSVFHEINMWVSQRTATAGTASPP
Nature of the assay: MAGL inhibition, 4-NPA assay (hydrolysis of 4-nitrophenylacetate, absorbance at 405 nm). Particulars: 4-NPA assay (footnote [a]: values not marked [b]). The format is biochemical. How it is done:
Compounds were profiled for MAGL inhibitory activity by measuring the enzymatic activity of MAGL by following the hydrolysis of 4-nitrophenylacetate resulting in 4-nitrophenol, which absorbs at 405-412 nm (G. G. Muccioli, G. Labar, D. M. Lambert, Chem. Bio. Chem. 2008, 9, 2704-2710). This assay is hereinafter abbreviated “4-NPA assay”.
The assay was carried out in 384 well assay plates (black with clear bottom, non-binding surface treated, Corning Ref. 3655) in a total volume of 40 μL. Compound dilutions were made in 100% DMSO (VWR Chemicals 23500.297) in a polypropylene plate in 3-fold dilution steps to give a final concentration range in the assay from 25 μM to 1.7 nM. 1 μL compound dilutions (100% DMSO) were added to 19 μL MAGL (recombinant wild-type) in assay buffer (50 mM TRIS (GIBCO, 15567-027), 1 mM EDTA (Fluka, 03690-100 mL)). The plate was shaked for 1 min at 2000 rpm (Variomag Teleshake) and then incubated for 15 min at RT. To start the reaction, 20 μL 4-Nitrophenlyacetate (Sigma N-8130) in assay buffer with 6% EtOH was added. The final concentrations in the assay were 1 nM MAGL and 300 μM 4-Nitrophenylacetate. After shaking (1 min, 2000 rpm) and 5 min incubation at RT, the absorbance at 405 nm was measured for a first time (Molecular Devices, SpectraMax Paradigm). A second measurement was then done after incubation for 80 min at RT. From the two measurements, the slope was calculated by subtracting the first from the second measurement.
As to `CC(Oc1ccc(F)cc1Cl)C1CCN(C(=O)N2CC[C@@H]3OCC(=O)N[C@@H]3C2)CC1` (mixture of isomers) [Example 28, rac-(4aR,8aS)-6-(4-(1-(2-Chloro-4-fluorophenoxy)ethyl)piperidine-1-carbonyl)hexahydro-2H-pyrido[4,3-b][1,4]oxazin-3(4H)-one], the IC50 is 0.002 µM.

`O=C1CO[C@H]2CCN(C(=O)N3CCC(c4ccc(OC(F)(F)F)cn4)CC3)C[C@H]2N1` (single isomer, unassigned) [Example 38, (+) or (−)-cis-6-(4-(5-(Trifluoromethoxy)pyridin-2-yl)piperidine-1-carbonyl)hexahydro-2H-pyrido[4,3-b][1,4]oxazin-3(4H)-one]: the IC50 was 0.644 µM.

On to `CC(c1ccccc1)N1CCN(C(=O)N2CC[C@@H]3OCC(=O)N[C@@H]3C2)CC1` (mixture of isomers) [Example 15, rac-(4aR,8aS)-6-(4-(1-Phenylethyl)piperazine-1-carbonyl)hexahydro-2H-pyrido[4,3-b][1,4]oxazin-3(4H)-one], for which the IC50 was determined as 3 µM.
